Here are results for one substance from patent publication US20180280480A1, “COMPOSITIONS AND PEPTIDES HAVING DUAL GLP-1R AND GLP-2R AGONIST ACTIVITY” (priority 2014, published 2018).

Marks after values point to notes of the source that are not given here.

Type in all cases: in vivo
Test [1] has as its system C57BL/6J mice. The test is described as follows: GLP1R-GLP2R dual agonist compound study: gut wet weight. From the text: On study day 8, the mice were terminated and the GI tract was removed for determination of the gut wet weight. The gut wet weight results are listed below in Table 12.
The subject of test [2] is Diet Induced Obese (DIO) Sprague-Dawley Rats. The test is described as follows: Oral glucose tolerance test in DIO Sprague-Dawley rats.
The subject of test [3] is C57BL/6J mice. The test is described as follows: Acute food intake in C57BL/6J mice. Conditions: for Total food intake (g/animal): Day 0: 0-[…] (lights off), mean ± SEM. As to the method:
The C57BL/6J mice arrived 7 days prior to the initiation of the study. During these days, animals were handled daily to accustom them to the experimental paradigm. At Day −1, the mice were randomised according to body weight to participate in one of following drug treatment groups (n=6-8 in each group): Group 1: vehicle. […] Group 3-5: SEQ ID NO 3; 3.0; 1.0; 0.3 mg/kg. Group 6-8: SEQ ID NO 4; 3.0; 1.0; 0.3 mg/kg. Group 9-11: SEQ ID NO 5; 3.0; 1.0; 0.3 mg/kg. Group 12-14: SEQ ID NO 6; 3.0; 1.0; 0.3 mg/kg. Group 15-17: SEQ ID NO 7; 3.0; 1.0; 0.3 mg/kg. Three days prior to initiation of dosing, all animals were handled daily and accustomed to the experimental conditions by subcutaneous mock injections (i.e. nipping the skin of the back). Baseline food intake was monitored four days prior to the study. Mice were randomized according to body weight on Day −1. Animals were subjected to two separate injections. First acute dose was administered prior to lights out at Day 0 and food intake was monitored 24 hours post dosing. On Day 3, mice were re-randomised into new treatment groups and dosed prior to lights out. Food intake was monitored 24 hours post dosing. Body weight was measured daily from Day −5 and throughout the study. The study was terminated on Day 5. […] Dosing took place prior to lights out in the afternoon (between 13.30 and 14.00). Doses were administered subcutaneously (dose volume 5 ml/kg). Food intake data was collected using the HM-2 system, an online computerized feeding system using digital weighing cells. Food intake and body weight were measured from Day −7 and throughout the study. […]

The subject of test [4] is Diet Induced Obese (DIO) Sprague-Dawley Rats. The test is described as follows: Body weight and whole body fat mass in DIO Sprague-Dawley rats. Conditions: for Body weight: mean ± S.E.M.; for Whole body fat mass: EchoMRI. As to the method:
(§1) Thirty (30) male Sprague-Dawley rats (7 weeks of age) were purchased from Taconic (Denmark) and transferred to the Gubra animal unit. During the acclimatization period, the rats were housed two per cage under a 12:12 light dark cycle (lights on from 04.00-16.00 h) at controlled temperature conditions (22±1° C.; 50±10% relative humidity). Throughout the study the rats had ad libitum access to a two choice diet—regular Altromin 1324 rodent chow (Brogaarden, Denmark) and a paste made from Chocolate spread (Nutella, Ferrero Italy), peanut butter and powdered regular Altromin 1324 rodent chow (Brogaarden, Denmark). The animals were kept on the diet for 65 weeks before experimentation. Animals were switched to single housing during the entire study period (day −6 to 25).
The animals were randomized into three study groups (n=10 per group) based on body weight recorded on day −1 to participate in one of the following groups: Group 1: Vehicle, SC, BID. Group 2: SEQ ID NO 6, 82 nmol/kg (day 2-7), 164 nmol/kg (day 8-14) and 328 nmol/kg (day 15-25), SC, BID. […] Dosing took place in the morning (between 06.00 and 08.00 h) and prior to lights out in the afternoon (between 13.30 and 14.00 h). Doses were administered subcutaneously with a dose volume 1 ml/kg. All rats were handled prior to experimentation to acclimatize the animals to handling and procedures. Body weight was measured from day −3 to termination on day 25. Total body fat mass was analyzed before study start (day −1) and before termination (study day 25) by non-invasive EchoMRI-900 (EchoMRI, USA). On day 23 of the study, rats were subjected to an oral glucose tolerance test (OGTT). Animals were mildly fasted as all food was removed 4 hours prior to the oral glucose load. Vehicle and compounds were administered subcutaneously (SC) 2 hours prior to the OGTT. At t=0 rats received an oral glucose load (2 g/kg; 4 ml/kg; […], Fresenius Kabi, Sweden). Glucose was given as gavage via a gastrically-placed tube connected to a syringe ensuring accurate dosing. Blood glucose was measured from tail vein blood before (t=−120 and 0 min, baseline) and after glucose administration (t=15, 30, 60 and 120 min). Blood samples was collected into 10 μl heparinized glass capillary tubes and immediately suspended in buffer (0.5 ml of glucose/lactate system solution (EKF-diagnostics, Germany) and analyzed for glucose on the test day using a BIOSEN c-Line glucose meter (EKF-diagnostics, Germany) according to manufacturer's instructions. On study day 25, the rats were terminated and the GI tract was removed. Intestines were flushed with saline, weighed and then fixated in 4% PFA for determination of small and large intestinal volume by stereological methods as described by Hansen et al. 2013, Am J Transl Res 5(3): 347-58).

The test system is the same in test [5]. In words: Small and large intestinal volume (stereology) in DIO Sprague-Dawley rats. The protocol:
as §1
The animals were randomized into three study groups (n=10 per group) based on body weight recorded on day −1 to participate in one of the following groups: Group 1: Vehicle, SC, BID. Group 2: SEQ ID NO 6, 82 nmol/kg (day 2-7), 164 nmol/kg (day 8-14) and 328 nmol/kg (day 15-25), SC, BID. […] Body weight was measured from day −3 to termination on day 25. Total body fat mass was analyzed before study start (day −1) and before termination (study day 25) by non-invasive EchoMRI-900 (EchoMRI, USA). […] Blood glucose was measured from tail vein blood before (t=−120 and 0 min, baseline) and after glucose administration (t=15, 30, 60 and 120 min). Blood samples was collected into 10 μl heparinized glass capillary tubes and immediately suspended in buffer (0.5 ml of glucose/lactate system solution (EKF-diagnostics, Germany) and analyzed for glucose on the test day using a BIOSEN c-Line glucose meter (EKF-diagnostics, Germany) according to manufacturer's instructions. On study day 25, the rats were terminated and the GI tract was removed. Intestines were flushed with saline, weighed and then fixated in 4% PFA for determination of small and large intestinal volume by stereological methods as described by Hansen et al. 2013, Am J Transl Res 5(3): 347-58).

[6] abbreviates: Day 25, 328 nmol/kg (escalated 82, 164, 328 nmol/kg SC BID).
The mark [7] stands for this setting: Day 25, 328 nmol/kg, mean ± S.E.M.

“R^1-HGDGSFTSELSTYLDALAARDFIAWLIQTKITDR^2 [SEQ ID NO 6]” yielded a Gut wet weight in the test with C57BL/6J mice [1] (Day 8, 3.0 mg/kg BID SC, mean ± S.E.M.) of 3.8 ± 0.3 g. Besides, the “gut wet weight compared to vehicle and teduglutide” value with C57BL/6J mice [1] (dosed twice daily for 8 days) is “significantly increased the gut wet weight”. Further, in test [2] (DIO rats, Table 15), the “effect on glucose tolerance” value is reported as “improved glucose tolerance”. The “Blood glucose during an oral glucose tolerance test. Area under the curve (AUC) −45 to 240 min.” value in test [2] (Day 23, 328 nmol/kg, mean ± S.E.M.) was 1731 ± 77.0 mmol·min/L. In addition, the “Total food intake (g/animal)” value turned out to be 0.33 ± 0.17 g/animal in the test with C57BL/6J mice [3] (single SC dose 0.3 mg/kg), 0.13 ± 0.08 g/animal in the test on C57BL/6J mice [3] (single SC dose 1 mg/kg) and 0.06 ± 0.03 g/animal in the test on C57BL/6J mice [3] (single SC dose 3 mg/kg). The “ranking as inhibitor of food intake after […]” value with C57BL/6J mice [3] (among SEQ ID NO 3-7, Table 4) is “most effective inhibitor of food intake”. Besides, the “food intake after […] compared to vehicle” value in the test on C57BL/6J mice [3] (single dose 0.3-3 mg/kg) is recorded as “significantly reduced food intake”. Further, the Body weight in test [4] (Day 0 (baseline), 328 nmol/kg group (escalated 82, 164, 328 nmol/kg SC BID)) worked out at 962.7 ± 27.8 g; in test [4] (setting [6]) it was 803.9 ± 35.5 g. For the same substance, the “Whole body fat mass” value in test [4] (setting [6]) amounted to 292.2 ± 25.4 g; in test [4] (Day −1 (baseline), 328 nmol/kg group (escalated 82, 164, 328 nmol/kg SC BID)) it was 400.3 ± 18.3 g. The Large intestine volume in test [5] (setting [7]) was 2.64 ± 0.17 cm^3. Further, the Small intestine volume in test [5] (setting [7]) is 8.50 ± 0.62*** cm^3. Besides, the “effect on small intestine volume” value in test [5] (treatment for 25 days, stereology) is given as “striking increase in small intestine volume”.
